# Experimental data as given in US20190359653A1, “SELECTIVE PEPTIDE INHIBITORS OF FRIZZLED” (Genentech, Inc., priority 2016, published 2019).
# System: Lgr5-GFP organoids pre-treated with CHIR99021; APC^min organoids
# Assay: RT-PCR in organoids with active downstream Wnt signaling (CHIR99021 or APC^min)
# Type: cell-based, mouse
# Conditions: peptide 100 μM, 24 h; CHIR99021 5 μM pre-treatment or Apc mutant background
# Method: Mouse organoids were established from isolated crypts collected from the entire length of the small intestine and maintained as previously described (Sato et al. (2009) Nature 459, 262-265 (2009). All mouse derived tissue was performed according to the animal use guidelines of Genentech, a Member of the Roche Group, and the Institutional Animal Care and Use Committee, conforming to California State legal and ethical practices. Mouse sex was not selected for. Organoids were passaged at least twice per week and grown using IntestiCult Organoid growth media (cat. no. 06005; StemCell Technologies). Peptides were suspended in DMSO and dissolved in media to 1% DMSO final concentration, then added to organoids to initiate drug treatment. Antibodies were added to 10 μg/ml concentration. […]
# Briefly, Lgr5-GFP organoids were pre-treated with DMSO or the Gsk3β inhibitor CHIR99021 (5 μM) for 24 h, then treated with DMSO, dFz7-21 (100 μM), or Fz7-21S (100 μM)±CHIR99021. Transcripts were quantified by RT-PCR for Axin2 (FIG. 42A), and Asc12 (FIG. 42B). In a second set of experiments, APC^min organoids were cultured and treated with DMSO, dFz7-21 (100 μM), Fz7-21S (100 μM) for 24 h, and transcripts were quantified by RT-PCR for Axin2 (FIG. 42C), Asc12 (FIG. 42D), and Lgr5 ([…]).
sequence,measurement,value
LPSDDLEFWCHVMY [dFz7-21],"stem cell (Lgr5, Ascl2) and Wnt signaling (Axin2) markers",Little or no effect
